Source: paper PMC10690091 (Cancer Research, 2023)

How the values were obtained:
[1] = tested on: MCF7 cells; test: Sytox Green proliferation assay, MCF7; assay type: cell-based, human
Description: MCF7 and CAMA-1 cells were seeded into 96-well microplates in phenol red-free RPMI-1640 medium containing 2 mmol/L L-glutamine and 5% (v/v) charcoal-stripped FBS at 4×10^3 and 8×10^3 cells/well, based on the doubling time of each cell line. Plates were incubated for 24 hours (37°C; 5% CO2) and a 10-point concentration range of selected compounds was dispensed onto the cells. Dimethyl sulfoxide (DMSO) was dispensed into control wells to give a 0.1% final concentration. One plate was untreated, as a day 0 control. […] were counted at days 0 and 7 (or day 6 for Y537S ESR1m MCF7 cells) using Sytox Green nucleic assay stain (180 nmol/L per well). Green (dead) cells were counted at days 0 and 7 using an Acumen Explorer (TTP Labtech) or Cellinsight imager (Thermo Fisher Scientific). Saponin 0.045% (weight/volume) was added to permeabilize the cells overnight, permitting total cell count. The number of live cells was calculated by subtracting dead cells from the total cell count, and curve-fitted using GraphPad Prism. Average cell counts from the day 0 plate were used to determine 0% cell growth. A dose–response curve was plotted using non-linear regression to determine the IC50 and bottom-of-curve values. Viability assay methods are described in Supplementary Methods.

[2] = tested on: recombinant LBD of ESR1 wild-type (ESR1wt) and ESR1m variants Y537C, Y537N, Y537S, S463P, D538G, E380Q; test: LanthaScreen TR-FRET competition binding, ESR1wt and ESR1m variants; conditions: displacement of fluorescent ER ligand
Description: The CRISPR knock-in Y537S ESR1m MCF7 cell line was generated as described elsewhere.(2) Cells were used within 20 passages between thawing and use in the described experiments.
Binding to recombinant ERα–LBD (glutathione-S-transferase [GST]; PV4543, Invitrogen) was assessed in competition assays using a LanthaScreen™ Time-Resolved Fluorescence Resonance Energy Transfer (TR-FRET) detection endpoint.
A terbium-labeled anti-GST antibody (PV3551, Invitrogen) was used to indirectly label the receptor by binding to its GST tag, and competitive binding was detected by a test compound’s ability to displace a tracer fluorescent ligand (Fluormone ES2; P2645, Invitrogen) from the ERα–LBD (GST) resulting in a loss of TR-FRET signal between the terbium–anti-GST antibody and the tracer. The assay was performed with all reagents added using the Beckman Coulter BioRAPTR FRD microfluidic […]
Formulation of the SERDs and inhibitors
Captisol® in water (60% of final volume). The vehicle control was formulated of 40% TEG and 60% […]
times weekly as a 0.1 mL subcutaneous injection. Elacestrant was formulated by suspending in 0.5% methylcellulose. Palbociclib was formulated by dissolving in 1% polysorbate 80. Abemaciclib was formulated in 1% hydroxyethyl cellulose, 25 mM sodium phosphate, pH 2. Everolimus was formulated by suspension in 0.5% hydroxypropyl methylcellulose/0.1% Tween 80. […]

binding affinity [2]: bound with high affinity
SMILES: C[C@@H]1Cc2c(ccc3[nH]ncc23)[C@@H](c2ccc(NC3CN(CCCF)C3)cn2)N1CC(F)(F)F [camizestrant]
cell growth inhibition ([1]; 7-day proliferation, MCF7): inhibited cell growth equivalently
IC50 ([1]; Homo sapiens, 168 h, MCF7 cells expressing WT ERα, 7 days, 5% FBS, values from independent experiments, read-out: pIC50 ESR1wt (proliferation) (converted)): 0.794 to 1 nM
